Read-outs that look alike come from different tables or passages of the source.
Experiments:
[1] = tested on: HCT-116 human colon tumor cells; assay: Compound-induced apoptosis in HCT-116 human colon tumor cells (microscopy for morphological markers); format: cell-based
Procedure: HCT-116 human colon tumor cells obtained from the American Type Culture Collection (ATCC) were grown in McCoy's 5A culture medium with 10% heat inactivated FBS, 1× penicillin/streptomycin, and 25 mM HEPES, in an incubator maintained at 37° C. with CO2 at 6-7% and humidity at 95%. Cells were treated with compounds using a dose range from 0.04 μM to 100 μM. After 48 hours they were examined by microscopy for signs of cell rounding, vaccuolation, and nuclear condensation. These are morphological markers associated with apoptosis, and are consistent with results obtained by performing an assay for nucleosomal DNA, or a TdT-mediated dUTP nick end labeling (TUNEL) assay.
The concentrations cited are the minimal concentration required to induce these morphological changes in 50% of the treated cells.

rat RabGGT = molecular target: T1, rat RabGGT (Rattus norvegicus, UniProt Q08602+Q08603); assay: RabGGT filter binding assay: transfer of (3H)geranylgeranyl from 3H-GGPP to recombinant Rab3A; format: biochemical; settings: for IC90/IC50: RabGGT inhibition; for RabGGT inhibition: rat RabGGT enzyme
T1 construct: purchased Calbiochem 345855; host or cells: Sf9/baculovirus
T1 sequence (Q08602 1-567): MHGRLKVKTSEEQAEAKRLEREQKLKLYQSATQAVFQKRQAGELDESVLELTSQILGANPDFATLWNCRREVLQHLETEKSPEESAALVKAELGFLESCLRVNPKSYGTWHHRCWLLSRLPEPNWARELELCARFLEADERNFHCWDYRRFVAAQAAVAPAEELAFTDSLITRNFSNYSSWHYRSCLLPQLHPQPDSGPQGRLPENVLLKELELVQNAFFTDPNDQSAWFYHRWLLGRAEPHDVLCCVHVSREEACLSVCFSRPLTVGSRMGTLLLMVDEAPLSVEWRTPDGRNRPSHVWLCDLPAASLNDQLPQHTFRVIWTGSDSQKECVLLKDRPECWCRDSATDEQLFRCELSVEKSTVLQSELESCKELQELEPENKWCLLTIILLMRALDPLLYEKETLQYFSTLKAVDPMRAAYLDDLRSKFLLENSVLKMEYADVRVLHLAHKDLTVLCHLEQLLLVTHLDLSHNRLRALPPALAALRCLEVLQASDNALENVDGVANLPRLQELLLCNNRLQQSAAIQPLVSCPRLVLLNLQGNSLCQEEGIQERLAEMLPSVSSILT
T1 sequence (Q08603 1-331): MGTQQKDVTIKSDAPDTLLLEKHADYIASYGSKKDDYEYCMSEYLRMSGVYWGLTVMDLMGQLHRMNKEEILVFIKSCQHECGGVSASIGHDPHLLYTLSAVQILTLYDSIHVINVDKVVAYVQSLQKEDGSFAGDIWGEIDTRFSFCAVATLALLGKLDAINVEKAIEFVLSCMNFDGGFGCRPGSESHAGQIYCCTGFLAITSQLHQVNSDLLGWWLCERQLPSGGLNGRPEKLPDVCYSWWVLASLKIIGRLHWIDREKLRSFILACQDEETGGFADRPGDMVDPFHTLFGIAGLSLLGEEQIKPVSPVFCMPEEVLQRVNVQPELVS
Description: The effect of compounds 7A through 7T on RabGGT activity was quantified using a filter binding assay that measures the transfer of (3H) geranylgeranyl groups (GG) from all-trans-(3H)geranylgeranyl pyrophosphate (3H-GGPP) to recombinant Rab3A protein (Shen & Seabra, 1996, JBC, 271 :3692; Armstrong et al., 1996, Methods in Enzymology 257:30). Modifications to published protocols are noted explicitly below.
Recombinant rat RabGGT, expressed using the Sf9/baculovirus system, was purchased from Calbiochem (cat. no. 345855). Recombinant unprenylated human Rab3A was obtained from Panvera.(cat. no. P2173). Human REβ-1, expressed in Sf9 cells, was obtained from Calbiochem (cat. no. 554000). Tritium labeled geranylgeranyl pyrophosphate was purchased from Amersham Pharmacia Biotech (15 Ci/mmol). Unlabeled GGPP was purchased from Sigma (cat. no. G-6025).
The reaction buffer contained 50 mM HEPES pH7.4, 5 mM MgCl2, 1 mM DTT, 1 mM Nβ-40. Solutions of RabGGT, Rab3A, REP-1, and GGPP were prepared in this reaction buffer. Final protein concentrations in the reaction mixture were modified from the published protocols, with the standard reaction mixture containing 2 μM Rab3A, 0.2 μM REP-1, 5 μM unlabeled GGPP, 0.5 μM labeled GGPP, and 10-50 nM RabGGT in a total volume of 20 μl. The specific activity of (3H)GGPP used in the assay was 3000 dpm/pmol.
Compounds were prepared as 50 mM stocks in DMSO and diluted to give an appropriate concentration for the assay as a 20% DMSO stock. 2 μl of the diluted compound stock was added to a 20 μl reaction to give a final DMSO concentration of 2% in the assay.
The order of addition of reagents was altered from the published protocols. Reaction mixtures were prepared by sequentially adding Rab3A and REP-1 proteins to the reaction buffer, followed by compound and RabGGT enzyme to a volume of 18 μl. Reactions were initiated by the addition of 2 μl of a solution that contained unlabeled and labeled GGPP. After a 30 minute incubation at 37° C., 1 ml of stop solution (1 volume of concentrated HCl acid with 9 volumes of ethanol) was added and mixed. The solution was then incubated at room temperature for 1 hour to completely precipitate proteins.
The precipitate was collected by vacuum filtration using a vacuum filtration manifold (Millipore model 1225) onto 25 mm GF/A filters (Whatman) that were prewetted with ethanol. The tubes were rinsed twice with 1 ml ethanol which was also poured over the filters. Each filter was subsequently washed three times with 2 mls of ethanol per wash, dried under vacuum, and then put in scintillation vials. Four milliliters of scintillation fluid was added and the radioactivity was quantified on a scintillation counter. Several types of blank reactions were conducted including withholding the enzyme, the substrate, or the accessory protein REP-1, or replacing the compound solution with a 20% DMSO solution. For the substrate titration experiment, the equimolar amounts of Rab3A and REP-1 were mixed and preincubated for 30 min at room temperature before addition of the enzyme.
The data was analyzed by non-linear regression analysis methods using the program PRIZM (GraphPad Software, Inc.). Inhibition constants were obtained by analyzing the data using the one site competition equation provided by the software. FIG. 7 presents a typical data series obtained for compound 7B using these methods.

[2] = molecular target: Farnesyl Transferase (FT) (Homo sapiens, UniProt P49354+P49356); assay: Biochemical assay for inhibition of farnesyl transferase (FT)
Procedure: Biochemical assays for inhibition of FT were performed as described by Mann et al. (1995, Drug Dev. Res. 34: 121) with the modifications described by Ding et al. (1999, J. Med. Chem., 42:5241)

HCT116 cells = assay: 3H-thymidine incorporation (proliferation) assay in HCT116 cells after siRNA treatment against RabGGT subunits; format: cell-based, human; parameters: concentration or dose not given beside the values; settings: 72 hours after siRNA/Lipofectamine 2000 treatment, average of three replicates
Procedure: HCT-116 human colon tumor cells obtained from the ATCC were grown in RPMI culture medium supplemented with 10% heat inactivated FBS, 1× penicillin/streptomycin, and 25 mM HEPES, in an incubator maintained at 37° C. with CO2 at 6% and humidity at 95%. HCT116 cells were plated in 96 well plates at 2000 cells/100 μl media per well and incubated for 24 hours before RNAi treatment. For treatment, a 2× solution of Lipofectamine 2000/siRNA complexes was generated for each individual siRNA as follows. The siRNA oligonucleotides (Xeragon; Huntsville Ala.) were diluted to a final concentration of 1 μM in Optimem serum-free media (Invitrogen; Carlsbad, Calif.) and incubated for 5 minutes at room temperature. The Lipofectamine 2000 reagent (Invitrogen; Carlsbad, Calif.) was diluted to 10 μg/ml in Optimem serum-free media and incubated for 5 minutes at room temperature. Equal volumes of the 1 μM siRNA oligonucleotides and the 10 μg/ml Lipofectamine 2000 were mixed together, giving a 5× stock of siRNA/Lipofectamine 2000 complexes. After incubation for 20 minutes at room temperature, 1.5 volumes of RPMI medium containing 10% heat inactivated FBS was added to the 5× stock, resulting in a 2× stock of siRNA/Lipofectamine 2000 complexes. For RNAi treatment, 100 μof the 2× stock of siRNA/Lipofectamine 2000 complexes was added to each well containing HCT116 cells, to give a final concentration of 1× siRNA/Lipofectamine 2000 complexes. Cells were incubated for 72 hours prior to the proliferation assay. Three replicates were performed for each siRNA treatment.
The effect of RNAi treatment directed against RabGGT subunits on cellular proliferation was assayed using a 3H-thymidine incorporation assay. The principle of this assay is as follows: During S-phase of the cell cycle, cells incorporate thymidine into the new strand of genomic DNA. Tritiated thymidine can be added to the culture medium and will be incorporated into genomic DNA in proportion to the number of rounds of DNA synthesis that occur. Incorporation can be quantified following lysis of the cells and removal of unincorporated nucleotides. RNAi-treated cells prepared as described above were assayed for 3H-thymidine uptake as follows. The cells were pulsed with 3H-thymidine by addition of 20 μl of a 44 μCi/ml solution of 3H-thymidine in RPMI to each well, to obtain a final concentration of 3H-thymidine of 4 μCi/ml. After incubation for 3 h at 37° C., the medium was removed and 50 μl of 0.25% trypsin in phosphate buffered saline (140 mM NaCl, 2.7 mM KCl, 10 mM Na2HPO4 and 1.8 mM KH2PO4, pH 7.4) was added. After 10 minutes, the contents of the wells were harvested onto a 96-well GF/C filter plate (Whatman; Clifton N.J.) using a Hewlett Packard Filtermate. The filter plate was washed 10 times with distilled water, then left to dry overnight. After the addition of 50 μl of Microscint-20 scintillation fluid (Perkin Elmer; Boston, Mass.) per well, the filter plates were sealed and the amount of radioactivity retained on the filter was determined by scintillation counting. The average of the three replicate samples is reported.

[3] = HCT-116, 48 h, HCT116 cells, 48 hours, minimal concentration inducing apoptotic morphological changes in 50% of treated cells, read-out: 50% APOPTOTIC
[4] = HCT-116, minimum concentration required to achieve apoptosis of 50% of the HCT116 cells (Table 7), read-out: HCT116 50% apoptosis
[5] = HCT-116, minimum concentration required to achieve apoptosis of 50% of the HCT116 cells (Table 8), read-out: HCT116 50% apoptosis
[6] = recombinant rat RabGGT, Rab3A, REP-1, 30 minute at 37° C.

| Compound | EC50 [1, 3] [nM] | EC50 [1, 4] [nM] | EC50 [1, 5] [nM] | IC90/IC50 (rat RabGGT) | IC50 (rat RabGGT; Table 7) [nM] | IC50 (rat RabGGT; [6]) [nM] | IC90 (rat RabGGT; [6]) [nM] | IC50 [2] [nM] | IC90 [2] [nM] | RabGGT inhibition (rat RabGGT) | IC90 (rat RabGGT; Table 7) [nM] | 3H-thy incorp. % of control (HCT116 cells) [%] |
| --- | --- | --- | --- | --- | --- | --- | --- | --- | --- | --- | --- | --- |
| Cn1cc(S(=O)(=O)N(Cc2ccsc2)C2Cc3cc(C#N)ccc3N(Cc3cncn3C)C2)cn1 (stereo not drawn) [Compound 7N] | 3700 | 3300 | 3300 | 12 | 25 | 25 | 309 | 0.7 | 9 |  |  |  |
| C=C(C)CN(C1Cc2cc(C#N)ccc2N(Cc2cncn2C)C1)S(=O)(=O)N1CC=CC1 (stereo not drawn) [Compound 7O] | 10000 | 10000 | 10000 | 19 | 58 | 58 | 1120 | 1.4 | 8 |  |  |  |
| Cn1cncc1CN1CC(N(Cc2ccsc2)S(=O)(=O)c2ccccn2)Cc2cc(C#N)ccc21 (stereo not drawn) [Compound 7P] | 25000 | 25000 | 25000 |  | 84 | 84 | 2160 | 0.7 | 4 |  |  |  |
| Cn1cnc(S(=O)(=O)N(Cc2ccsc2)C2Cc3cc(C#N)ccc3N(Cc3cncn3C)C2)c1 (stereo not drawn) [Compound 7Q] | 30000 | 30000 | 30000 |  | 47 | 47 | 2300 | 0.6 | 6 |  |  |  |
| Cn1cncc1CN1CC(N(CC(=O)OC(C)(C)C)S(=O)(=O)c2ccccn2)Cc2cc(C#N)ccc21 (stereo not drawn) [Compound 7R] | 30000 | 30000 | 30000 | 19 | 541 | 541 | 10100 | 1.5 | 9 | weaker inhibitors |  |  |
| Cn1cncc1CN1CC(NS(=O)(=O)c2ccccn2)Cc2cc(C#N)ccc21 (stereo not drawn) [Compound 7S] | 50000 | 50000 | 50000 | 19 | 73 | 73 | 1400 | 15.5 | 255 |  |  |  |
| Cc1nc(CN(C2Cc3cc(C#N)ccc3N(Cc3cncn3C)C2)S(=O)(=O)c2ccccn2)cs1 (stereo not drawn) [Compound 7T] | 90000 | 90000 | 90000 | >10 | 1430 | 1430 | > 15000 | 3.7 | 48 | weaker inhibitors | > 15000 |  |
| Alpha-1: siRNA against human RabGGT-alpha, coding bases 268-291, SEQ ID NO:01 / NO:02 (chain 1 GGCAGAACUGGGCUUCCUGTT; chain 2 CAGGAAGCCCAGUUCUGCCTT; chemistry not given here) |  |  |  |  |  |  |  |  |  |  |  | 33 |
| Alpha-2: siRNA against human RabGGT-alpha, coding bases 628-651, SEQ ID NO:03 / NO:04 (chain 1 AGAGCUGGAGCUGGUGCAGTT; chain 2 CUGCACCAGCUCCAGCUCUTT; chemistry not given here) |  |  |  |  |  |  |  |  |  |  |  | 17 |

Reference: patent publication US20040142888A1, “Modulators of RabGGT and methods of use thereof” (priority 2002, published 2004)
